# According to US20170348375A1, “DISLODGEMENT AND RELEASE OF HSC FROM THE BONE MARROW STEM CELL NICHE USING ALPHA9 INTEGRIN ANTAGONISTS” (COMMONWEALTH SCIENTIFIC AND INDUSTRIAL RESEARCH ORGANISATION, priority 2014, published 2017):
# “Also recorded” adds a separate entry of the source.
# Columns and labels:
# α4β1 integrin = molecular target: T1, α4β1 integrin (Homo sapiens, UniProt P05556+P13612); assay: Competitive inhibition of R-BC154 binding to α4β1 LN18 cells; conditions: 1 mM Ca2+/Mg2+
# T1 construct: expressed in transfected cells; host or cells: human glioblastoma LN18 (ATCC CRL-2610), retrovirally transduced
# T1 sequence (P13612 34-1032): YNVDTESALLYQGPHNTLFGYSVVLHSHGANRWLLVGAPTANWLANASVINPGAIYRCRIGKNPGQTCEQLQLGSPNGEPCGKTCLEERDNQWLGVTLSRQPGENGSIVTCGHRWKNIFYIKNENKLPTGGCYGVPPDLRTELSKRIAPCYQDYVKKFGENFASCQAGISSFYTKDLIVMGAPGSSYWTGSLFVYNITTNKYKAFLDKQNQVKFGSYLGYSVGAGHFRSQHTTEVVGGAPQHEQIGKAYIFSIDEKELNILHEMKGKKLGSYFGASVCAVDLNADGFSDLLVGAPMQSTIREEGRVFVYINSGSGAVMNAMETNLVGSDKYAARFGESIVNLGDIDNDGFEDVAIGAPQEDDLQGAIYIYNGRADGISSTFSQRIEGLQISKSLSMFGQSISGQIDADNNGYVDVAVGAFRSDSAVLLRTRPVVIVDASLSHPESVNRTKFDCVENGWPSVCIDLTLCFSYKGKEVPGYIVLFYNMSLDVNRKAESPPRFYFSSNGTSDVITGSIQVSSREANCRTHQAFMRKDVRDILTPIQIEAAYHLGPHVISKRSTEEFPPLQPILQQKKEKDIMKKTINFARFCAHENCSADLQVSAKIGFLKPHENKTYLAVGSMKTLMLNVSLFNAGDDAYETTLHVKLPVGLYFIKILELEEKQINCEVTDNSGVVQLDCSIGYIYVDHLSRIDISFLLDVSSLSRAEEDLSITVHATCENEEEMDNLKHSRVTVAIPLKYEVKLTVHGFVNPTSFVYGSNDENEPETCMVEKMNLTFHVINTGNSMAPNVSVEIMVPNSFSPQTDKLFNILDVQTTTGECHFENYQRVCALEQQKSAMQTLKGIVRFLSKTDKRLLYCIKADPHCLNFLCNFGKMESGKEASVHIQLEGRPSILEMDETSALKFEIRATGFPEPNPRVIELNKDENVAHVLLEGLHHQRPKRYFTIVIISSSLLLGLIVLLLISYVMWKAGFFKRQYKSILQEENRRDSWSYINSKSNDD
# T1 sequence (P05556 21-798): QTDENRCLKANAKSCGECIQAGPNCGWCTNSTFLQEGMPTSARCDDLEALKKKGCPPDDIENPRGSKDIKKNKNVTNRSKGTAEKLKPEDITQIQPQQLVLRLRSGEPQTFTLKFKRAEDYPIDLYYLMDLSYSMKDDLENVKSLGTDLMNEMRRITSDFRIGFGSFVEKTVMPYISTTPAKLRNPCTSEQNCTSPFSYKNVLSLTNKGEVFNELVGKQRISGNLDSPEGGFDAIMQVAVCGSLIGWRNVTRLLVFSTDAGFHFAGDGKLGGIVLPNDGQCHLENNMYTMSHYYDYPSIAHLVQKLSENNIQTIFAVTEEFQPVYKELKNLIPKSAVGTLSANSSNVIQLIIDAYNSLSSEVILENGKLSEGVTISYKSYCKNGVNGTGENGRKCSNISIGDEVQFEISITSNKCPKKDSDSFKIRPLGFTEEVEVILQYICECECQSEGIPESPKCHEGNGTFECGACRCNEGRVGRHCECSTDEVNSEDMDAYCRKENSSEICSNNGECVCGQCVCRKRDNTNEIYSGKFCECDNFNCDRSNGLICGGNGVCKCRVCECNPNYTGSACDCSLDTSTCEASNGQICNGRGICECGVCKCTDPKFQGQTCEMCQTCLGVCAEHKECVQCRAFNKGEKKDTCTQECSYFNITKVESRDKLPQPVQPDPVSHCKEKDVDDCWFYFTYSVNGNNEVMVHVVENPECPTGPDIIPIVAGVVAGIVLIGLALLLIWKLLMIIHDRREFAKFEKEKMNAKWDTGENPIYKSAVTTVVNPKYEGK
# Description: (§1) Cells were incubated for 90 min at 37° C., washed with PBS, pelleted by centrifugation and resuspended in PBS (200 μl) for flow cytometric analysis. % Max mean fluorescence intensity (MFI) was plotted against the log concentration of BOP and the data fitted to a ligand binding-sigmoidal dose-response curve and IC50 values obtained from graphs.
# α9β1 integrin = molecular target: T2, α9β1 integrin (Homo sapiens, UniProt P05556+Q13797); assay: Competitive inhibition of R-BC154 binding to α9β1 LN18 cells; conditions: 1 mM Ca2+/Mg2+
# T2 construct: expressed in transfected cells; host or cells: human glioblastoma LN18 (ATCC CRL-2610), retrovirally transduced; α4 silenced with pSM2c-shITGA4
# T2 sequence (Q13797 30-1035): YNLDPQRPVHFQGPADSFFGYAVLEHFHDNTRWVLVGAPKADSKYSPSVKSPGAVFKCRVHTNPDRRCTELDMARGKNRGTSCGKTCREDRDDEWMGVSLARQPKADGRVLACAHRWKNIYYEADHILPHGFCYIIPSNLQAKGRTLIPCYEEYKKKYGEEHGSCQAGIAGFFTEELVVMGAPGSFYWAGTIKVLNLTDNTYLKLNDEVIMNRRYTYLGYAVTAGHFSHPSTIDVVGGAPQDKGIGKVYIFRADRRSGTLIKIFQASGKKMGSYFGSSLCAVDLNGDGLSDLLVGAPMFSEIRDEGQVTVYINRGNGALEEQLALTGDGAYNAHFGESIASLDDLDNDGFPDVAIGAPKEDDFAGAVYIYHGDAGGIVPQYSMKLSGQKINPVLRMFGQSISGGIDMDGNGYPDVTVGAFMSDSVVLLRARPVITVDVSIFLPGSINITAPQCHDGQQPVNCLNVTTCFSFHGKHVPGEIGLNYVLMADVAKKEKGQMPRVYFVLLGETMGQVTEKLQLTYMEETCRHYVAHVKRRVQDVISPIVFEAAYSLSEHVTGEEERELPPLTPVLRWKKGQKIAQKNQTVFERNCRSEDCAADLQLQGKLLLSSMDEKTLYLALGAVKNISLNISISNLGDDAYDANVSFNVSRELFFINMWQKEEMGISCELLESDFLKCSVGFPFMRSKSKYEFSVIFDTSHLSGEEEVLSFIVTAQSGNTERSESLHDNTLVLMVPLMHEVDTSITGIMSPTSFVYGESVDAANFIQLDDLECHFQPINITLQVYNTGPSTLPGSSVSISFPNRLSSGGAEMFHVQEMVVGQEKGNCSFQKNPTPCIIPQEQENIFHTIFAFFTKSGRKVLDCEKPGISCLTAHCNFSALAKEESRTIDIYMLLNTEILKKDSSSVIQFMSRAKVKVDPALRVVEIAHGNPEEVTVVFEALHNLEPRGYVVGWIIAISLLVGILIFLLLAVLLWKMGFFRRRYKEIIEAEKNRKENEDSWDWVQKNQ
# T2 sequence (P05556 21-798): as the sequence (P05556 21-798) above
# Description: as §1
# [1] = test system: α9β1 and α4β1 integrin binding on HSC and progenitors (LSK and LSKSLAM); assay: Competitive displacement of R-BC154 binding to LSK and LSKSLAM cells; assay type: cell-based, mouse; conditions: 500 nM, 1 mM Ca2+/Mg2+
# Description: as §1
# [2] = test system: WBC, LSK and LSKSLAM in PB; assay: Mobilization of HSC and progenitors into peripheral blood; assay type: in vivo, mouse
# Description: For mobilization experiments, all mice received subcutaneous injections at 100 μl/10 gm body weight and PB was harvested by throat bleed using EDTA coated syringes.
# [3] = test system: α4β1 and α9β1 integrins binding to VCAM-1 and Opn; conditions: in vitro; cited from earlier work
# α9β1 = α9β1 (Homo sapiens, UniProt P05556+Q13797); conditions: Pepinsky et al (2002) FIG. 4b; cited from earlier work
# α9β1, sequence (Q13797 30-1035): as the sequence (Q13797 30-1035) above
# α9β1, sequence (P05556 21-798): as the sequence (P05556 21-798) above
# [4] = molecular target: T3, human integrin α4β1 (overexpressed in LN18 α4β1 cells; pMSCV-hITGA4-IRES-hITGB1) (Homo sapiens, UniProt P05556+P13612); assay: Competitive inhibition of R-BC154 (50 nM) binding to LN18 α4β1 cells by BOP, flow cytometry
# T3 construct: expressed in transfected cells; host or cells: LN18 human glioblastoma cells (ATCC CRL-2610), retrovirally transduced with pMSCV-hITGA4-IRES-hITGB1
# T3 sequence (P13612 34-1032): as the sequence (P13612 34-1032) above
# T3 sequence (P05556 21-798): as the sequence (P05556 21-798) above
# Description: (§2) Stable LN18 cells over-expressing human integrin α4β1 and α9β1 were generated via retroviral transduction of human glioblastoma LN18 cell lines. Silencing of background α4 expression in parental and α9β1 transduced LN18 cells was achieved by retroviral vector delivery of α4 shRNA.
# (§3) (a) Chemical structure of α9β1/α4β1 integrin antagonist BOP (2). […] Data is mean±SEM (n=3) (d) Analysis of the WBC, (e) LSK and (f) LSKSLAM content in the peripheral blood of mice treated with BOP (10 mg/kg) over 90 mins. Data is mean±SEM (n=5 per time point).
# (§4) Flow cytometric analysis was performed using an LSR II (BD Biosciences) as previously described in J. Grassinger, et al Blood, 2009, 114, 49-59. […] For BM and PB analysis, up to 5×10^6 cells were analysed at a rate of 10-20 k cell events/sec. For analysis of PB LSKSLAM, up to 1×10^6 events were saved. Cell sorting was performed on a Cytopeia Influx (BD) as previously described in J. Grassinger, et al.
# (§5) Stable LN18 cells ((ATCC number: CRL-2610) over-expressing integrin α4β1 (LN18 α4β1) or α9β1 (LN18 α9β1)) were generated by retroviral transduction using the pMSCV-hITGA4-IRES-hITGB1 and pMSCV-hITGA9-IRES-hITGB1 vectors as previously described in J Grassinger, et al Blood, 2009, 114, 49-59 and were maintained in DMEM supplemented with 2 mM L-glutamate in 10% FBS. […]
# [5] = molecular target: T4, human integrin α9β1 (overexpressed in LN18 α9β1 cells, α4-silenced; pMSCV-hITGA9-IRES-hITGB1) (Homo sapiens, UniProt P05556+Q13797); assay: Competitive inhibition of R-BC154 (50 nM) binding to LN18 α9β1 cells by BOP, flow cytometry
# T4 construct: expressed in transfected cells; host or cells: LN18 human glioblastoma cells (ATCC CRL-2610), retrovirally transduced with pMSCV-hITGA9-IRES-hITGB1, α4 silenced with pSM2c-shITGA4
# T4 sequence (Q13797 30-1035): as the sequence (Q13797 30-1035) above
# T4 sequence (P05556 21-798): as the sequence (P05556 21-798) above
# Description: as §2, §3, §4, §5
Structure (SMILES),inhibition of α4β1 integrin (competitive inhibition of R-BC154 binding) (α4β1 integrin),inhibition of α9β1 integrin (competitive inhibition of R-BC154 binding) (α9β1 integrin),inhibition of α9β1 and α4β1 integrin binding on HSC and progenitors (displacement of R-BC154) [1],"PB WBC, LSK and LSKSLAM compared to the saline control ([2]; 10 mg/kg, C57BL/6 mice, up to 90 mins)",mobilization of HSC with long-term multi-lineage engraftment potential ([2]; summary statement),inhibition of binding of α4β1 and α9β1 integrins to VCAM-1 and Opn [3],off-rates for α9β1 compared to α4β1 (α9β1),IC50 [4],IC50 [5]
"O=C(O)[C@H](Cc1ccc(OC(=O)N2CCCC2)cc1)NC(=O)[C@@H]1CCCN1S(=O)(=O)c1ccccc1 [BOP, N-(Benzenesulfonyl)-L-prolyl-L-O-(1-pyrrolidinylcarbonyl)tyrosine]",potent inhibitor,potent inhibitor,effectively inhibited,significant increases,effectively and rapidly mobilized,nanomolar inhibitory potencies; also recorded: can inhibit,significantly reduced off-rates,–,–
"O=C(O)[C@H](Cc1ccc(OC(=O)N2CCCC2)cc1)NC(=O)[C@@H]1CCCN1S(=O)(=O)c1ccccc1 [BOP (2), N-(Benzenesulfonyl)-L-prolyl-L-O-(1-pyrrolidinylcarbonyl)tyrosine]",–,–,–,–,–,–,–,2.39 nM,2.62 nM
